The source of these data is patent US20120214822A1 (ASTRAZENECA AB, priority 2007, published 2012).

Where a name gives a salt, the structure may show the parent alone.

The target of the assay is human active recombinant p38α-6His tagged (Homo sapiens, UniProt Q16539). Briefly: P38 Alpha Enzyme Assay (AlphaScreen, biotinylated-ATF2 substrate).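 Also: 0.5 nM final p38α, reaction started with ATP and run 45 min at 37 °C, phospho-ATF2 read by antibody-based AlphaScreen, background wells quenched with EDTA before ATP.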 It is filed as biochemical. The note with it: p38 alpha enzyme inhibition; means of replicate determinations; 4 h pre-incubation at 37° C.; SD of assay 0.2-0.3 log units.
Chain of human active recombinant p38α-6His tagged (Q16539 whole entry): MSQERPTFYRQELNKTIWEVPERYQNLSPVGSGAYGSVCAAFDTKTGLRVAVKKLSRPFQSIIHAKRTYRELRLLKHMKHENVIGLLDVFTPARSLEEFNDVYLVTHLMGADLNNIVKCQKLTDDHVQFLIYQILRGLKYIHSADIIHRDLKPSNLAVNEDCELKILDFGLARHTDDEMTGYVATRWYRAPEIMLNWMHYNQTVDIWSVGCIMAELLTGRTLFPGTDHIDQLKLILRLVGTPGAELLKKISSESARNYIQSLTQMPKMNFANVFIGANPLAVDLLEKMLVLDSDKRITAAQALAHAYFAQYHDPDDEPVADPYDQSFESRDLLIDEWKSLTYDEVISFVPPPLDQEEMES

One may read the pIC50 as the negative decadic logarithm of the IC50, by convention in mol/L. Regarding `CNCCCc1ccccc1C(C)(C)Nc1nccn(-c2cc(C(=O)NC3CC3)cc(F)c2C)c1=O` [Example 323, N-Cyclopropyl-3-fluoro-4-methyl-5-{3-[(1-methyl-1-{2-[3-(methylamino)propyl]phenyl}ethyl)amino]-2-oxopyrazin-1(2H)-yl}benzamide], the pIC50 came to 9.5.

Turning to `Cc1ccc(C(=O)NC2CC2)cc1-n1ccnc(NC2(c3ccccc3OCCNC(C)C)CCC2)c1=O` [Example 271, N-Cyclopropyl-4-methyl-3-[3-[[1-[2-[2-[(1-methylethyl)amino]ethoxy]phenyl]cyclobutyl]amino]-2-oxo-1(2H)-pyrazinyl]-benzamide], the pIC50 came out at 9.9. On to `Cc1ccc(C(=O)NC2CC2)cc1-n1ccnc(NC2(c3ccccc3OCCNCCCO)CC2)c1=O` [Example 250, N-Cyclopropyl-3-[3-[[1-[2-[2-[(3-hydroxypropyl)amino]ethoxy]phenyl]cyclopropyl]amino]-2-oxo-1(2H)-pyrazinyl]-4-methyl-benzamide], for which the pIC50 amounted to 9.7. On the same count and under the same terms, next, `Cc1c(F)cc(C(=O)NC2CC2)cc1-n1ccnc(NC2(c3ccccc3OCCNC(C)C)CC2)c1=O` [Example 264, N-Cyclopropyl-3-fluoro-4-methyl-5-[3-[[1-[2-[2-[(1-methylethyl)amino]ethoxy]phenyl]cyclopropyl]amino]-2-oxo-1(2H)-pyrazinyl]-benzamide]: 10.1. One may read the IC50 as the midpoint of a concentration-inhibition curve. On to `CNCCCOc1ccccc1[C@H]1CCCN1c1nccn(-c2cc(C(=O)NC3CC3)ccc2C)c1=O` (single isomer, unassigned) [Example 325], for which the IC50 is 1.26 nM.

With `Cc1ccccc1CNc1nccn(-c2cc(C(=O)NC3CC3)ccc2C)c1=O` [Example 39, N-Cyclopropyl-4-methyl-3-[3-[[(2-methylphenyl)methyl]amino]-2-oxo-1(2H)-pyrazinyl]-benzamide], the pIC50 is reported as 7.5. Regarding `Cc1ccc(C(=O)NC2CC2)cc1-n1ccnc(N[C@@H](c2ccccc2)[C@@H](C)CN2CCC(C(F)(F)F)CC2)c1=O` [Example 177, N-Cyclopropyl-4-methyl-3-[3-[[(1R,2S)-2-methyl-1-phenyl-3-[4-(trifluoromethyl)-1-piperidinyl]propyl]amino]-2-oxo-1(2H)-pyrazinyl]-benzamide], the pIC50 is reported as 9.

Turning to `CC[C@@H](Nc1nccn(-c2cc(C(=O)NOC)ccc2C)c1=O)c1ccccc1` [Example 113, N-Methoxy-4-methyl-3-[2-oxo-3-[[(1R)-1-phenylpropyl]amino]-1(2H)-pyrazinyl]-benzamide, trifluoroacetate], the pIC50 is 9.8. Take `CCc1ccc(C(=O)NC2CC2)cc1-n1ccnc(NC(C)(C)c2ccccc2OCCNC[C@H](C)O)c1=O` [Example 289, N-Cyclopropyl-4-ethyl-3-[3-({1-[2-(2-{[(2S)-2-hydroxypropyl]amino}ethoxy)phenyl]-1-methylethyl}amino)-2-oxopyrazin-1(2H)-yl]benzamide]: the pIC50 is listed as 8.9. Same read-out and setting: next, `Cc1ccc(C(=O)NC2CC2)cc1-n1ccnc(NCc2ccc(C(C)(C)C)cc2)c1=O` [Example 37, N-Cyclopropyl-3-[3-[[[4-(1,1-dimethylethyl)phenyl]methyl]amino]-2-oxo-1(2H)-pyrazinyl]-4-methyl-benzamide]: 6.1; `Cc1ccc(CCNc2nccn(-c3cc(C(=O)NC4CC4)ccc3C)c2=O)cc1` [Example 74, N-Cyclopropyl-4-methyl-3-[3-[[2-(4-methylphenyl)ethyl]amino]-2-oxo-1(2H)-pyrazinyl]-benzamide]: 6.7.

Consider `Cc1ccc(C(=O)NC2CC2)cc1-n1ccnc(NCCc2ccccn2)c1=O` [Example 9, N-Cyclopropyl-4-methyl-3-[2-oxo-3-[[2-(2-pyridinyl)ethyl]amino]-1(2H)-pyrazinyl]-benzamide], for which the pIC50 was 6.3. Same read-out and setting: next, `CC(=O)N1CCN(C[C@H](C)[C@@H](Nc2nccn(-c3cc(C(=O)NC4CC4)ccc3C)c2=O)c2ccccc2)CC1` [Example 140, 3-[3-[[(1R,2S)-3-(4-Acetyl-1-piperazinyl)-2-methyl-1-phenylpropyl]amino]-2-oxo-1(2H)-pyrazinyl]-N-cyclopropyl-4-methyl-benzamide]: 8.6; `CCNC[C@H](O)COc1ccccc1C(C)(C)Nc1nccn(-c2cc(C(=O)NC3CC3)cc(F)c2C)c1=O` [Example 309, N-Cyclopropyl-3-[3-{[1-(2-{[(2S)-3-(ethylamino)-2-hydroxypropyl]oxy}phenyl)-1-methylethyl]amino}-2-oxopyrazin-1(2H)-yl]-5-fluoro-4-methylbenzamide]: 10.2; `CCC(C)NCCOc1ccccc1C1(Nc2nccn(-c3cc(C(=O)NC4CC4)ccc3C)c2=O)CC1` (stereo not shown) [Example 246, N-Cyclopropyl-4-methyl-3-[3-[[1-[2-[2-[(1-methylpropyl)amino]ethoxy]phenyl]cyclopropyl]amino]-2-oxo-1(2H)-pyrazinyl]-benzamide]: 9.8. On the same count and under the same terms, the figure for `CONC(=O)c1ccc(C)c(-n2ccnc(N[C@@H](c3ccccc3)[C@@H](C)CN3CCCC3)c2=O)c1` [Example 159, N-Methoxy-4-methyl-3-[3-[[(1R,2S)-2-methyl-1-phenyl-3-(1-pyrrolidinyl)propyl]amino]-2-oxo-1(2H)-pyrazinyl]-benzamide] is 9.6; for `CNCCCOc1ccccc1C(C)(C)Nc1nccn(-c2cc(C(=O)NC3CC3)ccc2C)c1=O` [Example 164, N-Cyclopropyl-4-methyl-3-[3-[[1-methyl-1-[2-[3-(methylamino)propoxy]phenyl]ethyl]amino]-2-oxo-1(2H)-pyrazinyl]-benzamide] it is 9.6; for `CNC[C@H](O)COc1ccccc1C(C)(C)Nc1nccn(-c2cc(C(=O)NC3CC3)cc(F)c2C)c1=O` [Example 310, N-Cyclopropyl-3-fluoro-5-[3-{[1-(2-{[(2S)-2-hydroxy-3-(methylamino)propyl]oxy}phenyl)-1-methylethyl]amino}-2-oxopyrazin-1(2H)-yl]-4-methylbenzamide] it is 10. The same measure, in the same setting: next, `Cc1ccc(C(=O)NC2CC2)cc1-n1cc(C#N)nc(NCc2ccccc2)c1=O` [Example 104, 3-[5-Cyano-2-oxo-3-[(phenylmethyl)amino]-1(2H)-pyrazinyl]-N-cyclopropyl-4-methyl-benzamide]: 7.2. Consider `Cc1ccc(C(=O)NC2CC2)cc1-n1ccnc(NCc2cccnc2)c1=O` [Example 24, N-Cyclopropyl-4-methyl-3-[2-oxo-3-[(3-pyridinylmethyl)amino]-1(2H)-pyrazinyl]-benzamide], for which the pIC50 is recorded as 6.3. Still for that read-out and setting: next, `Cc1ccc(C(=O)NC2CC2)cc1-n1ccnc(NC(C)(C)c2ccccc2OCCCN2CCN(C)CC2)c1=O` [Example 208, N-Cyclopropyl-4-methyl-3-[3-[[1-methyl-1-[2-[3-(4-methyl-1-piperazinyl)propoxy]phenyl]ethyl]amino]-2-oxo-1(2H)-pyrazinyl]-benzamide]: 9.1; `Cc1ccc(C(=O)NC2CC2)cc1-n1ccnc(NCc2ccc(CN)cc2)c1=O` [Example 125, 3-[3-[[[4-(Aminomethyl)phenyl]methyl]amino]-2-oxo-1(2H)-pyrazinyl]-N-cyclopropyl-4-methyl-benzamide]: 6.2; `CONC(=O)c1ccc(C)c(-n2ccnc(N3CCNC(c4ccccc4)C3)c2=O)c1` (stereo not shown) [Example 126, N-Methoxy-4-methyl-3-[2-oxo-3-(3-phenyl-1-piperazinyl)-1(2H)-pyrazinyl]-benzamide]: 8.1. The same measure, in the same setting: next, `CONC(=O)c1ccc(C)c(-n2ccnc(N[C@@H](c3cccc4ccccc34)[C@@H](C)CN3CCCC3)c2=O)c1` [Example 158, N-Methoxy-4-methyl-3-[3-[[(1R,2S)-2-methyl-1-(1-naphthalenyl)-3-(1-pyrrolidinyl)propyl]amino]-2-oxo-1(2H)-pyrazinyl]-benzamide]: 9; `Cc1ccc(C(=O)NC2CC2)cc1-n1ccnc(NCc2ccccc2-c2ccccc2)c1=O` [Example 44, 3-[3-[([1,1′-Biphenyl]-2-ylmethyl)amino]-2-oxo-1(2H)-pyrazinyl]-N-cyclopropyl-4-methyl-benzamide]: 7.6; `Cc1ccc(C(=O)NC2CC2)cc1-n1ccnc(N[C@@H](c2ccccc2)[C@@H](C)CN2CCCC2)c1=O` [Example 142, N-Cyclopropyl-4-methyl-3-[3-[[(1R,2S)-2-methyl-1-phenyl-3-(1-pyrrolidinyl)propyl]amino]-2-oxo-1(2H)-pyrazinyl]-benzamide]: 8.8. Turning to `Cc1ccc(C(=O)NC2CC2)cc1-n1ccnc(NC2(c3cccc(F)c3OCCN)CC2)c1=O` [Example 284, 3-[3-({1-[2-(2-Aminoethoxy)-3-fluorophenyl]cyclopropyl}amino)-2-oxopyrazin-1(2H)-yl]-N-cyclopropyl-4-methylbenzamide], the pIC50 was 9.5. As to `Cc1ccccc1[C@H](Nc1nccn(-c2cc(C(=O)NC3CC3)ccc2C)c1=O)[C@@H](C)CN1CCCC1` [Example 275, N-Cyclopropyl-3-[3-[[(1R,2S)-1-(2-methylphenyl)-2-methyl-3-(1-pyrrolidinyl)propyl]amino]-2-oxo-1(2H)-pyrazinyl]-4-methyl-benzamide], the pIC50 was 8.6. On the same count and under the same terms, the figure for `Cc1ccc(C(=O)NC2CC2)cc1-n1ccnc(NC(C)(C)c2ccccc2OC2CCNC2)c1=O` (stereo not shown) [Example 216, N-Cyclopropyl-4-methyl-3-[3-[[1-methyl-1-[2-(3-pyrrolidinyloxy)phenyl]ethyl]amino]-2-oxo-1(2H)-pyrazinyl]-benzamide] is 9.4. On the same count and under the same terms, next, `Cc1ccc(C(=O)NC2CC2)cc1-n1ccnc(NC2(c3ccccc3OCCN)CC2)c1=O` [Example 251, 3-[3-[[1-[2-(2-aminoethoxy)phenyl]cyclopropyl]amino]-2-oxo-1(2H)-pyrazinyl]-N-cyclopropyl-4-methyl-benzamide]: 10.1; `Cc1ccc(C(=O)NC2CC2)cc1-n1ccnc(NC2(c3ccccc3OC[C@@H](O)CNCCO)CC2)c1=O` [Example 302, N-Cyclopropyl-3-[3-({1-[2-({(2S)-2-hydroxy-3-[(2-hydroxyethyl)amino]propyl}oxy)phenyl]cyclopropyl}amino)-2-oxopyrazin-1(2H)-yl]-4-methylbenzamide]: 10.
